The results in this text go back to ChEMBL document CHEMBL5506033, “Brain-Penetrant Macrocycles: Design Considerations, Future Prospects, and Call for Papers” (J Med Chem, 2024).

Data set [1] in a line: Oral bioavailability in human. In kind it is ADME, organism-based. As to conditions: in vivo.
The nature of data set [2]: Half life in human. In kind it is ADME.

Broadly, the bioavailability is dose-corrected exposure relative to a reference, in per cent. A word on the half-life: it is the time in which the quantity being followed falls by half. A low value points to rapid decline.

SMILES strings stand for the structures.

`C[C@H]1Oc2cc(cnc2N)-c2c(nn(C)c2C#N)CN(C)C(=O)c2ccc(F)cc21` [LORLATINIB]: the bioavailability in data set [1] came to 81%. In data set [2], this molecule showed a half-life of roughly 25 h.
